Measurements reported in patent US20230293407A1, “Compositions Comprising (Bio)-Alkanediols with Antimicrobials for Product Protection” (Symrise AG, priority 2020, published 2023).

Key:
Assay in all cases: preservation efficacy test (PET), European Pharmacopoeia 5.1.3
Type in all cases: cell-based
[1] = system: Pseudomonas aeruginosa; details: for count at 2 days / count at 7 days / count at 14 days / count at 28 days: PA, use concentration in label
[2] = system: Escherichia coli; details: for count at 2 days / count at 7 days / count at 14 days / count at 28 days: EC, use concentration in label
[3] = system: Aspergillus brasiliensis; details: for count at 2 days / count at 7 days / count at 14 days / count at 28 days: AB, use concentration in label
[4] = system: Candida albicans; details: for count at 2 days / count at 7 days / count at 14 days / count at 28 days: CA, use concentration in label
[5] = system: Staphylococcus aureus; details: for count at 2 days / count at 7 days / count at 14 days / count at 28 days: SA, use concentration in label
[6] = 2 days after inoculation, substance at given % in test formulation
[7] = 7 days after inoculation, substance at given % in test formulation
[8] = 14 days after inoculation, substance at given % in test formulation
[9] = 28 days after inoculation, substance at given % in test formulation

SMILES	count at 2 days ([1]; 2 days after inoculation)	count at 7 days ([1]; 7 days after inoculation)	count at 14 days ([1]; 14 days after inoculation)	count at 28 days ([1]; 28 days after inoculation)	count at 2 days ([2]; 2 days after inoculation)	count at 7 days ([2]; 7 days after inoculation)	count at 14 days ([2]; 14 days after inoculation)	count at 28 days ([2]; 28 days after inoculation)	count at 2 days ([3]; 2 days after inoculation)	count at 7 days ([3]; 7 days after inoculation)	count at 14 days ([3]; 14 days after inoculation)	count at 28 days ([3]; 28 days after inoculation)	count at 2 days ([4]; 2 days after inoculation)	count at 7 days ([4]; 7 days after inoculation)	count at 14 days ([4]; 14 days after inoculation)	count at 28 days ([4]; 28 days after inoculation)	count at 2 days ([5]; 2 days after inoculation)	count at 7 days ([5]; 7 days after inoculation)	count at 14 days ([5]; 14 days after inoculation)	count at 28 days ([5]; 28 days after inoculation)	also measured
O=C(OCc1ccccc1)c1ccccc1O [0.2% Benzyl Salicylate]																					PA germ count, 2 days [1, 6]: 1.200; PA germ count, 7 days [1, 7]: 790; PA germ count, 14 days [1, 8]: 160.000; PA germ count, 28 days [1, 9]: 44.000; EC germ count, 2 days [2, 6]: 250.000; EC germ count, 7 days [2, 7]: 13.000; EC germ count, 14 days [2, 8]: 640; EC germ count, 28 days [2, 9]: 430; AB germ count, 14 days [3, 8]: 750.000; AB germ count, 28 days [3, 9]: 630.000; CA germ count, 7 days [4, 7]: 600.000; CA germ count, 14 days [4, 8]: 370.000; CA germ count, 28 days [4, 9]: 390.000; SA germ count, 2 days [5, 6]: 670.000; SA germ count, 7 days [5, 7]: 9.200; SA germ count, 14 days [5, 8]: 1; SA germ count, 28 days [5, 9]: 1
CC(O)C(=O)[O-].[Na+] (stereo not drawn) [0.8% sodium lactate (50%)]	1	1	1	1	440.000	210.000	210.000	850	910.000	730.000	440.000	190.000	930.000	800.000	890.000	260.000	190.000	150.000	170.000	18.000	
COc1ccc(C(=O)O)cc1 [anisic acid, reference compound]																					number of microorganisms, 2 days ([1]; PET, Pseudomonas aeruginosa (PA), 2 days after inoculation): 1; number of microorganisms, 7 days ([1]; PET, Pseudomonas aeruginosa (PA), 7 days after inoculation): 1; number of microorganisms, 14 days ([1]; PET, Pseudomonas aeruginosa (PA), 14 days after inoculation): 1; number of microorganisms, 28 days ([1]; PET, Pseudomonas aeruginosa (PA), 28 days after inoculation): 1; number of microorganisms, 2 days ([2]; PET, Escherichia coli (EC), 2 days after inoculation): 1; number of microorganisms, 7 days ([2]; PET, Escherichia coli (EC), 7 days after inoculation): 1; number of microorganisms, 14 days ([2]; PET, Escherichia coli (EC), 14 days after inoculation): 1; number of microorganisms, 28 days ([2]; PET, Escherichia coli (EC), 28 days after inoculation): 1; number of microorganisms, 2 days ([3]; PET, Aspergillus brasiliensis (AB), 2 days after inoculation): 650.000; number of microorganisms, 7 days ([3]; PET, Aspergillus brasiliensis (AB), 7 days after inoculation): 360.000; number of microorganisms, 14 days ([3]; PET, Aspergillus brasiliensis (AB), 14 days after inoculation): 1; number of microorganisms, 28 days ([3]; PET, Aspergillus brasiliensis (AB), 28 days after inoculation): 1; number of microorganisms, 2 days ([4]; PET, Candida albicans (CA), 2 days after inoculation): 7.000; number of microorganisms, 7 days ([4]; PET, Candida albicans (CA), 7 days after inoculation): 9.000; number of microorganisms, 14 days ([4]; PET, Candida albicans (CA), 14 days after inoculation): 1; number of microorganisms, 28 days ([4]; PET, Candida albicans (CA), 28 days after inoculation): 1; number of microorganisms, 2 days ([5]; PET, Staphylococcus aureus (SA), 2 days after inoculation): 1; number of microorganisms, 7 days ([5]; PET, Staphylococcus aureus (SA), 7 days after inoculation): 1; number of microorganisms, 14 days ([5]; PET, Staphylococcus aureus (SA), 14 days after inoculation): 1; number of microorganisms, 28 days ([5]; PET, Staphylococcus aureus (SA), 28 days after inoculation): 1
CCCCCCCC(=O)NO [0.4% caprylhydroxamic acid]	1	1	1	1	6.900	1	1	1	810.000	68.000	180	1	210.000	1	1	1	1	1	1	1	
OCCCO [0.8% 1,3-propanediol]	290	200	180	1	350.000	74.000	4.100	1	900.000	650.000	270.000	380		650.000	630.000	1	180.000	58.000	820	1	
